Values after ≈ are worked out from the molar mass of the structure shown. Like-named read-outs stand apart in the source and are kept apart here.
What was measured:
[1] = test system: chloroquine-sensitive strains of the human-pathogenenic Plasmodium falciparum; assay: Growth inhibition of chloroquine-sensitive Plasmodium falciparum strains in vitro; format: cell-based; settings: read-out: IC50 growth inhibition
Procedure: (§1) Test Method for the Determination of the Activity Against Plasmodium falciparum in vitro
(§2) The preparations are tested on intraerythrocytary stages of Plasmodium falciparum from asynchronous cultures according to the method of Desjardin et al. (Desjardins, R. E. et al: Quantitative assessment of antimalarial activity in vitro by a semiautomated microdilution technique. Antimicrob. Agents Chemother. 16, 710-718, (1979)).
(§3) The culture medium consists of RPMI 1640 with the addition of 25 mM HEPES, 25 mM NaHCO3, 100 μg/ml neomycin and […] (A^+). Human-A^+ erythrocytes are used as the Plasmodium falciparum host cells. The parasites are maintained at 37° C. in an atmosphere of 3% O2, 4% CO2, 9:3% N2 and 95% relative humidity.
(§4) In order to determine the activity, the preparations are dissolved in dimethyl sulphoxide, pre-diluted in the culture medium to a suitable starting concentration and subsequently titrated-out on to microtitre plates in the 2nd stage over 6-7 steps. After the addition of the parasite culture (0.7% parasitemia in 2.5% erythrocyte suspension) the test plates are incubated under the conditions given above for 48 h-72 h. The parasite growth in the different preparation concentrations is determined using [G--^3 H]-hypoxanthin incorporation compared to untreated control cultures on the same test plates. The 50% growth inhibition (IC50) is calculated according to logit regression analysis from the resulting dosage-activity curve.
(§5) The preparations are tested on at least one chloroquine-resistant and one chloroquine-sensitive Plasmodium falciparum strain. Additional sensitive and resistant strains are included for futher characterization.

[2] = test system: chloroquine-resistant strains of the human-pathogenic Plasmodium falciparum; assay: Growth inhibition of chloroquine-resistant Plasmodium falciparum strains in vitro; format: cell-based; settings: for IC50: Plasmodium falciparum; for Resistance index: ratio of average IC50 values for resistant strains and average values for sensitive strains
Procedure: as §1, §2, §3, §4, §5

Plasmodium berghei = assay: Activity against Plasmodium berghei in vivo in mice; design: species or system Plasmodium berghei (strain ANKA) in mice; settings: percentage parasitemia reduction, mice
Procedure: Test Method for the Determination of the Activity Against Plasmodium berghei in vivo
The preparations are tested on mice infected with malaria pathogens (Plasmodium berghei). Male albino mice (IBM:MORO(SPF), FUELLINSDORF) weighing about 25 g are used as the test animals. They are kept in climatized rooms at 21°-22° C. in groups of 5 animals per cage. They receive ad libitum a diet feed with a low PABA content (NAFAG FUTTER .COPYRGT. No. 9009 PAB-45, PABA content 45 mg/kg) and drinking water. On the first day of the test (DO) the test animals are infected with Plasmodium berghei (strain ANKA). For this there is used heparinized blood of a donor mouse with about 30% parasitemia, which is diluted with physiological saline such that it contains 10^8 parasitized erythrocytes per ml. 0.2 ml of this suspension is injected intravenously (i.v.) into the mice to be treated and into the control mice. In untreated control animals the parasitemia normally reaches 30-40% on the third day after the infection (D+3) and the test animals die between days +5 and +7.
The substances to be tested are dissolved or suspended in distilled water or in a mixture of 7% Tween 80, 3% alcohol (96%) and water. Usually, 0.25 ml of this solution or suspension is administered once subcutaneously and perorally to groups of 5 test animals. Treatment is effected 24 hours after the infection. 10 control animals are treated in the same manner with solvent or suspension medium per test.
All substances are tested in a first test in a single dosage of 10 mg/kg. Only those substances which in this test (10 mg/kg) have shown a parasitaemia reduction of 90% are used for the titration. Suitable dilutions of the test substance can be used to obtain an accurate titration of the activity.
48 hours after the treatment (D+3) blood smears are prepared from all animals using blood from tail veins and are stained with giemsa. The average erythrocyte infection rate (parasitemiea in %) in the control groups as well as in the groups which have been treated with the test compounds is determined by counting under a microscope. The difference in the average values of the infection rates of control group (100%) and treated groups is calculated and expressed as a percentage reduction (GI%). The ED50 or ED90 is determined mathematically by means of the JMP programme (nonlinear fit). The ED50 (ED90) in mg/kg is that dose which after single administration reduces the average erythrocyte infection rate by 50% (90%) in comparison to the control group.

[3] = HB3, strain HB3, chloroquine-sensitive
[4] = NF54, strain NF54, chloroquine-sensitive
[5] = strain FCH5C2, chloroquine-sensitive
[6] = strain RFMEF3, chloroquine-sensitive
[7] = strain Ro73, chloroquine-sensitive
[8] = read-out: IC50 growth inhibition, strain 7G8, chloroquine-resistant
[9] = read-out: IC50 growth inhibition, strain Indo, chloroquine-resistant
[10] = read-out: IC50 growth inhibition, strain ItG2F6, chloroquine-resistant
[11] = read-out: IC50 growth inhibition, strain K1, chloroquine-resistant
[12] = read-out: IC50 growth inhibition, strain RFCF3, chloroquine-resistant
[13] = read-out: IC50 growth inhibition, strain W2, chloroquine-resistant
[14] = read-out: IC50 growth inhibition, strain W2 Mef, chloroquine-resistant
[15] = po, single peroral dose 10 mg/kg, read-out: GI % at 10 mg/kg po
[16] = sc, single subcutaneous dose 10 mg/kg, read-out: GI % at 10 mg/kg sc

| Structure (SMILES) | IC50 [1, 3] [µg/mL] | IC50 [1, 4] [µg/mL] | IC50 [1, 5] [µg/mL] | IC50 [1, 6] [µg/mL] | IC50 [1, 7] [µg/mL] | IC50 [2, 8] [µg/mL] | IC50 [2, 9] [µg/mL] | IC50 [2, 10] [µg/mL] | IC50 [2, 11] [µg/mL] | IC50 [2, 12] [µg/mL] | IC50 [2, 13] [µg/mL] | IC50 [2, 14] [µg/mL] | Resistance index [2] | inhibition in vivo at 10 mg/kg (Plasmodium berghei; [15]) [%] | inhibition in vivo at 10 mg/kg (Plasmodium berghei; [16]) [%] |
| --- | --- | --- | --- | --- | --- | --- | --- | --- | --- | --- | --- | --- | --- | --- | --- |
| Clc1ccc2c(Nc3cccc(Nc4ccnc5cc(Cl)ccc45)c3)ccnc2c1 [Example 9, N,N'-Bis-(7-Chloroquinolin-4-yl)-phenylene-1,3-diamine] | 0.0095 (≈ 0.022 µM) | 0.0237 (≈ 0.0549 µM) | 0.0156 (≈ 0.0362 µM) | 0.0108 (≈ 0.025 µM) | 0.0104 (≈ 0.0241 µM) | 0.0171 (≈ 0.0396 µM) | 0.0077 (≈ 0.0179 µM) | 0.0129 (≈ 0.0299 µM) | 0.0171 (≈ 0.0396 µM) | 0.0125 (≈ 0.029 µM) | 0.0121 (≈ 0.0281 µM) | 0.0121 (≈ 0.0281 µM) | 0.9 | 86 | 83 |
| Clc1ccc2c(NCC3CCCC(CNc4ccnc5cc(Cl)ccc45)C3)ccnc2c1 (stereo not drawn) [Example 11, (7-Chloroquinolin-4-yl)-[3-(7-chloroquinolin-4-yl-aminomethyl)-cyclohexylmethyl]-amine] | 0.0127 (≈ 0.0273 µM) | 0.0172 (≈ 0.037 µM) | 0.0145 (≈ 0.0312 µM) | 0.0168 (≈ 0.0361 µM) | 0.0049 (≈ 0.0105 µM) | 0.0205 (≈ 0.044 µM) | 0.0144 (≈ 0.0309 µM) | 0.0116 (≈ 0.0249 µM) | 0.0178 (≈ 0.0382 µM) | 0.0141 (≈ 0.0303 µM) | 0.0099 (≈ 0.0213 µM) | 0.0159 (≈ 0.0342 µM) | 1.1 | 28 | 99.6 |
